Test results reported in the kinase profiling compilation of Christmann-Franck et al. (2016).

Experiments:
Assay in all cases: KINOMEscan competition binding
Details in all cases: compound 10.0 µM
MARK3 (human) = MARK3 (human) (UniProt P27448)
DCLK1 (human) = DCLK1 (human) (UniProt O15075)
BMPR2 (human) = BMPR2 (human) (UniProt Q13873)
PIK3CB (human) = PIK3CB (human) (UniProt P42338)
MUSK (human) = MUSK (human) (UniProt O15146)
PRKCD (human) = PRKCD (human) (UniProt Q05655)
RIPK2 (human) = RIPK2 (human) (UniProt O43353)
TTK (human) = TTK (human) (UniProt P33981)
NEK2 (human) = NEK2 (human) (UniProt P51955)
ROS1 (human) = ROS1 (human) (UniProt P08922)
SRPK2 (human) = SRPK2 (human) (UniProt P78362)
AURKB (human) = AURKB (human) (UniProt Q96GD4)
MAPK4 (human) = MAPK4 (human) (UniProt P31152)
ULK2 (human) = ULK2 (human) (UniProt Q8IYT8)
IKBKB (human) = IKBKB (human) (UniProt O14920)
Chain of IKBKB (human) (O14920 whole entry, looked up): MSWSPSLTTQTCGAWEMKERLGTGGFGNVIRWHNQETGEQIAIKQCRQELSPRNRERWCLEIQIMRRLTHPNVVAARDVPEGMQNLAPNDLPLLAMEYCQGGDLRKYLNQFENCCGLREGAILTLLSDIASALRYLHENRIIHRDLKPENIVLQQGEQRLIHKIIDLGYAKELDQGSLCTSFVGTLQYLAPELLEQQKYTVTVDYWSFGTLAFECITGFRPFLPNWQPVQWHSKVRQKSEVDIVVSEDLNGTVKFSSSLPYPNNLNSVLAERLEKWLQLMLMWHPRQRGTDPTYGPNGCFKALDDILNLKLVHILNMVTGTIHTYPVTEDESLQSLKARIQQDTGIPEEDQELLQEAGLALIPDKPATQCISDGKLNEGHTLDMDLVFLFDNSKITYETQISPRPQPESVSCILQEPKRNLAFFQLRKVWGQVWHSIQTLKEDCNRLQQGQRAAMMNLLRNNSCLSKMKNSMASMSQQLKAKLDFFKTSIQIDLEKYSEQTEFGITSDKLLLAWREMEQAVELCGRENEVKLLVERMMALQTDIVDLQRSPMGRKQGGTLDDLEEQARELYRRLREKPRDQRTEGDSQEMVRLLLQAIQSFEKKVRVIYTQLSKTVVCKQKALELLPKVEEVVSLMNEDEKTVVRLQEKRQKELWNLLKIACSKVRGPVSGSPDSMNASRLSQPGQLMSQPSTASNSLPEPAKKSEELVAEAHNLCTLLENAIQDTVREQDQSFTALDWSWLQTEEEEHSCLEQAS

KDR (human) = KDR (human) (UniProt P35968)
Chain of KDR (human) (P35968 whole entry, looked up): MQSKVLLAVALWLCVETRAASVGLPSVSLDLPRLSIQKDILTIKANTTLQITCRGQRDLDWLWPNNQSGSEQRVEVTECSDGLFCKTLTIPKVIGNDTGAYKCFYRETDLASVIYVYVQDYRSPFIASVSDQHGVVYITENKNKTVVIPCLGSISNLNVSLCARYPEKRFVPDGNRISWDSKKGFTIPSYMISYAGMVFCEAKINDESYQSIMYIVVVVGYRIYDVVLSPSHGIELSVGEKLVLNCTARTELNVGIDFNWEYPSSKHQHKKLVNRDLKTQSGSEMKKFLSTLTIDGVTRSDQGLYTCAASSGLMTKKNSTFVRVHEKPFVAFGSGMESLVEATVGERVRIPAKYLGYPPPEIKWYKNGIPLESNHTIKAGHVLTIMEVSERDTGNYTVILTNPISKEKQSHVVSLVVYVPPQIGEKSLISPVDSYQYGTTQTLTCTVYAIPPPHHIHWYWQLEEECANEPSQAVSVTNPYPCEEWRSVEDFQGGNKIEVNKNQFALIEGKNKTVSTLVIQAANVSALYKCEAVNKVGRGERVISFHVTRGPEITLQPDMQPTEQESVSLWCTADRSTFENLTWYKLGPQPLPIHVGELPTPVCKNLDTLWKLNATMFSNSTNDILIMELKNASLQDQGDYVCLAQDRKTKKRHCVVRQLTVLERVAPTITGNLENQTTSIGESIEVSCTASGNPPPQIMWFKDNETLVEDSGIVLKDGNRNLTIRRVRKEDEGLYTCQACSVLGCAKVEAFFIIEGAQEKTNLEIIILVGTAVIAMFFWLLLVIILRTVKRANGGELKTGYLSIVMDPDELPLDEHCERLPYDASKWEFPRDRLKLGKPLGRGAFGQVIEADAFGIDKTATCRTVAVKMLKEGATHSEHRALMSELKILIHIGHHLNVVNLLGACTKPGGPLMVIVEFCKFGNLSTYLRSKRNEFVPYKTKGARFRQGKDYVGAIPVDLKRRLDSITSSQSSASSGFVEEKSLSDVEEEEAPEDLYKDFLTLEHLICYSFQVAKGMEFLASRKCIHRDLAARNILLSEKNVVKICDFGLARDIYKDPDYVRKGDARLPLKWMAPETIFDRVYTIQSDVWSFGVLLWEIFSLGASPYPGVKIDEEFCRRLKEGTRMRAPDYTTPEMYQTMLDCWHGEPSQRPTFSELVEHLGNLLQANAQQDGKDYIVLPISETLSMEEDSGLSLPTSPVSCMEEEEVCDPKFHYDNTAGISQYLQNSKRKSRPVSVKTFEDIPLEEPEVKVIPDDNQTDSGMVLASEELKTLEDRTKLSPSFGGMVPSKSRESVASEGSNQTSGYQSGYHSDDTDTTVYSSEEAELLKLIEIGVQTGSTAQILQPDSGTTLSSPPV

LTK (human) = LTK (human) (UniProt P29376)
MAP2K3 (human) = MAP2K3 (human) (UniProt P46734)
MYLK2 (human) = MYLK2 (human) (UniProt Q9H1R3)
MAPK1 (human) = MAPK1 (human) (UniProt P28482)
MAPKAPK5 (human) = MAPKAPK5 (human) (UniProt Q8IW41)
FRK (human) = FRK (human) (UniProt P42685)
PIM1 (human) = PIM1 (human) (UniProt P11309)
GSK3B (human) = GSK3B (human) (UniProt P49841)
FLT3 (human) = FLT3 (human) (UniProt P36888)
CDK19 (human) = CDK19 (human) (UniProt Q9BWU1)
NTRK1 (human) = NTRK1 (human) (UniProt P04629)
PIM2 (human) = PIM2 (human) (UniProt Q9P1W9)
ROCK2 (human) = ROCK2 (human) (UniProt O75116)
CSNK2A2 (human) = CSNK2A2 (human) (UniProt P19784)
PAK6 (human) = PAK6 (human) (UniProt Q9NQU5)
PAK3 (human) = PAK3 (human) (UniProt O75914)
MAPKAPK2 (human) = MAPKAPK2 (human) (UniProt P49137)
PRKD1 (human) = PRKD1 (human) (UniProt Q15139)
CAMK2G (human) = CAMK2G (human) (UniProt Q13555)
Chain of CAMK2G (human) (Q13555 whole entry, looked up): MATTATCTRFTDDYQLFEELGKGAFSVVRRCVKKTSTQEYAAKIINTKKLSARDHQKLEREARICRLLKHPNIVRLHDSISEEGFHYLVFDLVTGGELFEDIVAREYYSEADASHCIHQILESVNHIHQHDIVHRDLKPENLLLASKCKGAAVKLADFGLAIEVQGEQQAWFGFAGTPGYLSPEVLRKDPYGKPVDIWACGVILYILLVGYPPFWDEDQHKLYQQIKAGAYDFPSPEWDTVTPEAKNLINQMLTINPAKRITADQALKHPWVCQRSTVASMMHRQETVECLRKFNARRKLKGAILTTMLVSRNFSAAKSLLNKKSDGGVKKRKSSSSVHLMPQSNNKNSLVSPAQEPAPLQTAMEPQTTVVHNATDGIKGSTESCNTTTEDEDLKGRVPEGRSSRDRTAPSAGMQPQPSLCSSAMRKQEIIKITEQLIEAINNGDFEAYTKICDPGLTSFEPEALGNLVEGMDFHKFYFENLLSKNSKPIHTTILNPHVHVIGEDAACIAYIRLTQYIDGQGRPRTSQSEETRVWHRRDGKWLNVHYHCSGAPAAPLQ

INSRR (human) = INSRR (human) (UniProt P14616)
Chain of INSRR (human) (P14616 whole entry, looked up): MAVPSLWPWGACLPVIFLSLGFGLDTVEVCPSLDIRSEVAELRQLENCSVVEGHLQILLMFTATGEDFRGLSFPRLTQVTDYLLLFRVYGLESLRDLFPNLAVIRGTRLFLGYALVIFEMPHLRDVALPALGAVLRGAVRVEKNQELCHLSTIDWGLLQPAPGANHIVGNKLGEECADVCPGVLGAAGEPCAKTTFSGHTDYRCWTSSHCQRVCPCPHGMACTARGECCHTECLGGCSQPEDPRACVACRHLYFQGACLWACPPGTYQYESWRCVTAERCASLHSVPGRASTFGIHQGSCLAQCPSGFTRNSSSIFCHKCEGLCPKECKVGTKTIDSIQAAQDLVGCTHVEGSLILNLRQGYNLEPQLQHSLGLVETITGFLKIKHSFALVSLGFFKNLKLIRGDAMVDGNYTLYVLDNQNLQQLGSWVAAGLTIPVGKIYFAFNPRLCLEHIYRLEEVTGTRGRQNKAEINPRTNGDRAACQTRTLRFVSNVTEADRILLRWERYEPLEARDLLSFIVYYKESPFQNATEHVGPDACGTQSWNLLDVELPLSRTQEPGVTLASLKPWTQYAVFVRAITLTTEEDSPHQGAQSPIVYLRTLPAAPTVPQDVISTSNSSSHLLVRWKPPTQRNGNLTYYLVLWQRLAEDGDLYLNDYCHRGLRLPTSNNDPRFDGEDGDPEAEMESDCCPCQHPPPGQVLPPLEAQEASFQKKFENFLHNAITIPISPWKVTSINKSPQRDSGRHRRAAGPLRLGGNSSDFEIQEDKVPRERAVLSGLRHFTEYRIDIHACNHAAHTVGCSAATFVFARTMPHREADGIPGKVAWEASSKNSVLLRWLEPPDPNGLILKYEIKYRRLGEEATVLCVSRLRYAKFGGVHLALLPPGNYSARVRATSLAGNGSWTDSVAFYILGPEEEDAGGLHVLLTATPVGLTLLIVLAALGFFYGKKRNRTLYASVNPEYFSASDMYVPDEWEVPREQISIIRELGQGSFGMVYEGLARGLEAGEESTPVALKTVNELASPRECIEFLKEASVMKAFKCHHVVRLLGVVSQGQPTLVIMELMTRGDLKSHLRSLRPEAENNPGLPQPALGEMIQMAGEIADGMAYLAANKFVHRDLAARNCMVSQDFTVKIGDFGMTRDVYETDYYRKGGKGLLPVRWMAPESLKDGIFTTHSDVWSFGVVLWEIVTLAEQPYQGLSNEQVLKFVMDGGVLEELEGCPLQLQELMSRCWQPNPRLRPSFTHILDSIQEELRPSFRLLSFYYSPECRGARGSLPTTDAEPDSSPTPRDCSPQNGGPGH

SIK1 (human) = SIK1 (human) (UniProt P57059)
CSK (human) = CSK (human) (UniProt P41240)
AKT2 (human) = AKT2 (human) (UniProt P31751)
TAOK3 (human) = TAOK3 (human) (UniProt Q9H2K8)
MKNK2 (human) = MKNK2 (human) (UniProt Q9HBH9)

Chain of PIK3CB (human) (P42338 whole entry, looked up): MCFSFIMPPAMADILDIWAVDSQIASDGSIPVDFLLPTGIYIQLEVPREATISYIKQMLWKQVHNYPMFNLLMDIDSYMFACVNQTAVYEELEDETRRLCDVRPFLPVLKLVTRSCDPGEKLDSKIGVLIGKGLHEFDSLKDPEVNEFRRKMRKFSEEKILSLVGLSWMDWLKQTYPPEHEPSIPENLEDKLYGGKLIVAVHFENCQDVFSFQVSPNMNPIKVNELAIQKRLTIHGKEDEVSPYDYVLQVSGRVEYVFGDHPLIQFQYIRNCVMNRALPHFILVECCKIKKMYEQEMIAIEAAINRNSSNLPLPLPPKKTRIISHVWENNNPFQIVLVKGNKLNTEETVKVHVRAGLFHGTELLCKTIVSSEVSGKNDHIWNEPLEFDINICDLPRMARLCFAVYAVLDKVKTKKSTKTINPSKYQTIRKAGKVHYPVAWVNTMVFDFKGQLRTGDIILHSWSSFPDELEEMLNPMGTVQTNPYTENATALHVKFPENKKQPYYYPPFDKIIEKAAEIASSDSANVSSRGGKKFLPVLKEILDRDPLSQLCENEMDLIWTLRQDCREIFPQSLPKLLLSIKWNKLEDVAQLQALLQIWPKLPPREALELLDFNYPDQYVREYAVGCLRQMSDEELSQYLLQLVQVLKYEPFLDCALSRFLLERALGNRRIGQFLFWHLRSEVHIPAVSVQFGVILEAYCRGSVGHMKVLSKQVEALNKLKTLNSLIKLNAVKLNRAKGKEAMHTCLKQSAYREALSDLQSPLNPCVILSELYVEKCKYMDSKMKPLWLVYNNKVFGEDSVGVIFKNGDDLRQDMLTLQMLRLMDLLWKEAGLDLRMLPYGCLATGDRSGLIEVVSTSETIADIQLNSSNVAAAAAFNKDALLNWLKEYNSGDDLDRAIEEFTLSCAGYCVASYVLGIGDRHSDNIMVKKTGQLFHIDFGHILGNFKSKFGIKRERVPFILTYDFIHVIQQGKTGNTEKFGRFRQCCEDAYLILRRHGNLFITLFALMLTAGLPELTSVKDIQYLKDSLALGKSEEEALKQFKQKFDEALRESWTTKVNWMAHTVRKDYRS

COc1cc(C(=O)NC2CCN(C)CC2)ccc1Nc1ncc2c(n1)N(C1CCCC1)C(C)CC(=O)N2C (stereo not drawn)
kinase still bound, per cent of control (MARK3 (human)): 100% | kinase still bound, per cent of control (DCLK1 (human)): 4% | kinase still bound, per cent of control (BMPR2 (human)): 100% | kinase still bound, per cent of control (PIK3CB (human)): 100% | kinase still bound, per cent of control (MUSK (human)): 100% | kinase still bound, per cent of control (PRKCD (human)): 100% | kinase still bound, per cent of control (RIPK2 (human)): 100% | kinase still bound, per cent of control (TTK (human)): 4.6% | kinase still bound, per cent of control (NEK2 (human)): 100% | kinase still bound, per cent of control (ROS1 (human)): 100% | kinase still bound, per cent of control (SRPK2 (human)): 100% | kinase still bound, per cent of control (AURKB (human)): 100% | kinase still bound, per cent of control (MAPK4 (human)): 100% | kinase still bound, per cent of control (ULK2 (human)): 100% | kinase still bound, per cent of control (IKBKB (human)): 100% | kinase still bound, per cent of control (KDR (human)): 100% | kinase still bound, per cent of control (LTK (human)): 100% | kinase still bound, per cent of control (MAP2K3 (human)): 100% | kinase still bound, per cent of control (MYLK2 (human)): 100% | kinase still bound, per cent of control (MAPK1 (human)): 100% | kinase still bound, per cent of control (MAPKAPK5 (human)): 100% | kinase still bound, per cent of control (FRK (human)): 100% | kinase still bound, per cent of control (PIM1 (human)): 100% | kinase still bound, per cent of control (GSK3B (human)): 100% | kinase still bound, per cent of control (FLT3 (human)): 100% | kinase still bound, per cent of control (CDK19 (human)): 100% | kinase still bound, per cent of control (NTRK1 (human)): 100% | kinase still bound, per cent of control (PIM2 (human)): 100% | kinase still bound, per cent of control (ROCK2 (human)): 100% | kinase still bound, per cent of control (CSNK2A2 (human)): 100% | kinase still bound, per cent of control (PAK6 (human)): 100% | kinase still bound, per cent of control (PAK3 (human)): 100% | kinase still bound, per cent of control (MAPKAPK2 (human)): 100% | kinase still bound, per cent of control (PRKD1 (human)): 100% | kinase still bound, per cent of control (CAMK2G (human)): 34% | kinase still bound, per cent of control (INSRR (human)): 26% | kinase still bound, per cent of control (SIK1 (human)): 100% | kinase still bound, per cent of control (CSK (human)): 100% | kinase still bound, per cent of control (AKT2 (human)): 100% | kinase still bound, per cent of control (TAOK3 (human)): 100% | kinase still bound, per cent of control (MKNK2 (human)): 100%

Cc1ccc(NC(=O)c2cccc(C(C)(C)C#N)c2)cc1Nc1ccc2ncn(C)c(=O)c2c1
kinase still bound, per cent of control (MARK3 (human)): 89% | kinase still bound, per cent of control (DCLK1 (human)): 97% | kinase still bound, per cent of control (BMPR2 (human)): 58% | kinase still bound, per cent of control (PIK3CB (human)): 100% | kinase still bound, per cent of control (MUSK (human)): 92% | kinase still bound, per cent of control (PRKCD (human)): 89% | kinase still bound, per cent of control (RIPK2 (human)): 7% | kinase still bound, per cent of control (TTK (human)): 95% | kinase still bound, per cent of control (NEK2 (human)): 100% | kinase still bound, per cent of control (ROS1 (human)): 100% | kinase still bound, per cent of control (SRPK2 (human)): 100% | kinase still bound, per cent of control (AURKB (human)): 100% | kinase still bound, per cent of control (MAPK4 (human)): 100% | kinase still bound, per cent of control (ULK2 (human)): 100% | kinase still bound, per cent of control (IKBKB (human)): 94% | kinase still bound, per cent of control (KDR (human)): 2.3% | kinase still bound, per cent of control (LTK (human)): 100% | kinase still bound, per cent of control (MAP2K3 (human)): 80% | kinase still bound, per cent of control (MYLK2 (human)): 100% | kinase still bound, per cent of control (MAPK1 (human)): 100% | kinase still bound, per cent of control (MAPKAPK5 (human)): 100% | kinase still bound, per cent of control (FRK (human)): 2.8% | kinase still bound, per cent of control (PIM1 (human)): 100% | kinase still bound, per cent of control (GSK3B (human)): 95% | kinase still bound, per cent of control (FLT3 (human)): 61% | kinase still bound, per cent of control (CDK19 (human)): 35% | kinase still bound, per cent of control (NTRK1 (human)): 98% | kinase still bound, per cent of control (PIM2 (human)): 100% | kinase still bound, per cent of control (ROCK2 (human)): 80% | kinase still bound, per cent of control (CSNK2A2 (human)): 100% | kinase still bound, per cent of control (PAK6 (human)): 84% | kinase still bound, per cent of control (PAK3 (human)): 81% | kinase still bound, per cent of control (MAPKAPK2 (human)): 100% | kinase still bound, per cent of control (PRKD1 (human)): 67% | kinase still bound, per cent of control (CAMK2G (human)): 100% | kinase still bound, per cent of control (INSRR (human)): 100% | kinase still bound, per cent of control (SIK1 (human)): 30% | kinase still bound, per cent of control (CSK (human)): 1.2% | kinase still bound, per cent of control (AKT2 (human)): 100% | kinase still bound, per cent of control (TAOK3 (human)): 100% | kinase still bound, per cent of control (MKNK2 (human)): 99%

COc1cc(C(=O)NC2CCN(C)CC2)ccc1Nc1ncc2c(n1)N(C1CCCC1)CCC(=O)N2C(C)C
kinase still bound, per cent of control (MARK3 (human)): 100% | kinase still bound, per cent of control (DCLK1 (human)): 100% | kinase still bound, per cent of control (BMPR2 (human)): 100% | kinase still bound, per cent of control (PIK3CB (human)): 100% | kinase still bound, per cent of control (MUSK (human)): 100% | kinase still bound, per cent of control (PRKCD (human)): 0% | kinase still bound, per cent of control (RIPK2 (human)): 100% | kinase still bound, per cent of control (TTK (human)): 100% | kinase still bound, per cent of control (NEK2 (human)): 100% | kinase still bound, per cent of control (ROS1 (human)): 100% | kinase still bound, per cent of control (SRPK2 (human)): 100% | kinase still bound, per cent of control (AURKB (human)): 100% | kinase still bound, per cent of control (MAPK4 (human)): 100% | kinase still bound, per cent of control (ULK2 (human)): 100% | kinase still bound, per cent of control (IKBKB (human)): 100% | kinase still bound, per cent of control (KDR (human)): 100% | kinase still bound, per cent of control (LTK (human)): 100% | kinase still bound, per cent of control (MAP2K3 (human)): 100% | kinase still bound, per cent of control (MYLK2 (human)): 100% | kinase still bound, per cent of control (MAPK1 (human)): 100% | kinase still bound, per cent of control (MAPKAPK5 (human)): 100% | kinase still bound, per cent of control (FRK (human)): 100% | kinase still bound, per cent of control (PIM1 (human)): 100% | kinase still bound, per cent of control (GSK3B (human)): 100% | kinase still bound, per cent of control (FLT3 (human)): 100% | kinase still bound, per cent of control (CDK19 (human)): 100% | kinase still bound, per cent of control (NTRK1 (human)): 100% | kinase still bound, per cent of control (PIM2 (human)): 100% | kinase still bound, per cent of control (ROCK2 (human)): 100% | kinase still bound, per cent of control (CSNK2A2 (human)): 100% | kinase still bound, per cent of control (PAK6 (human)): 100% | kinase still bound, per cent of control (PAK3 (human)): 100% | kinase still bound, per cent of control (MAPKAPK2 (human)): 100% | kinase still bound, per cent of control (PRKD1 (human)): 100% | kinase still bound, per cent of control (CAMK2G (human)): 100% | kinase still bound, per cent of control (INSRR (human)): 100% | kinase still bound, per cent of control (SIK1 (human)): 100% | kinase still bound, per cent of control (CSK (human)): 100% | kinase still bound, per cent of control (AKT2 (human)): 100% | kinase still bound, per cent of control (TAOK3 (human)): 100% | kinase still bound, per cent of control (MKNK2 (human)): 100%
